Experimental data taken from the NIST ThermoML archive (doi:10.1016/j.tca.2011.08.025).

Experiment: molar heat capacity at constant pressure
Details: 101.33 kPa, Crystal, Relaxation calorimetry

[Al] [aluminum]
Details | molar heat capacity at constant pressure [J/K/mol]
5.284 K | 0.011
9.67 K | 0.035
14.08 K | 0.085
18.45 K | 0.181
22.82 K | 0.341
27.12 K | 0.602
31.49 K | 0.992
35.83 K | 1.526
40.18 K | 2.149
44.52 K | 2.841
48.85 K | 3.64
53.19 K | 4.446
57.52 K | 5.317
61.85 K | 6.177
66.18 K | 7.052
70.51 K | 7.917
74.83 K | 8.774
79.16 K | 9.582
83.49 K | 10.38
87.82 K | 11.08
92.15 K | 11.77
96.47 K | 12.46
100.7 K | 13.15
105.1 K | 13.74
109.4 K | 14.29
113.7 K | 14.88
118 K | 15.37
122.4 K | 15.87
126.7 K | 16.34
131 K | 16.78
135.3 K | 17.22
139.7 K | 17.63
144 K | 17.97
148.3 K | 18.36
152.6 K | 18.61
156.9 K | 18.93
161.2 K | 19.21
165.6 K | 19.46
169.9 K | 19.74
174.2 K | 20.03
178.5 K | 20.29
182.8 K | 20.49
187.1 K | 20.74
191.4 K | 20.96
195.7 K | 21.15
200.1 K | 21.31
204.4 K | 21.47
208.7 K | 21.66
213 K | 21.83
217.3 K | 22.01
221.7 K | 22.2
226 K | 22.34
230.3 K | 22.46
234.6 K | 22.58
238.9 K | 22.73
243.3 K | 22.82
247.6 K | 22.99
251.9 K | 23.05
256.2 K | 23.21
260.5 K | 23.34
264.9 K | 23.48
269.2 K | 23.61
273.5 K | 23.7
277.8 K | 23.73
282.1 K | 23.82
286.4 K | 23.93
290.8 K | 24.02
295.1 K | 24.12
299.4 K | 24.14
303.8 K | 24.21

[Nd] [neodymium]
Details | molar heat capacity at constant pressure [J/K/mol]
2.151 K | 0.8396
2.367 K | 1.016
2.581 K | 1.201
2.795 K | 1.394
3.01 K | 1.604
3.226 K | 1.824
3.438 K | 2.061
3.649 K | 2.3
3.86 K | 2.548
4.072 K | 2.809
4.282 K | 3.093
4.49 K | 3.38
4.705 K | 3.673
4.913 K | 3.971
5.122 K | 4.282
5.177 K | 4.343
5.328 K | 4.571
5.524 K | 4.815
5.736 K | 5.023
5.948 K | 5.221
6.156 K | 5.44
6.362 K | 5.633
6.569 K | 5.743
6.774 K | 5.889
6.98 K | 6.064
7.186 K | 6.234
7.391 K | 6.437
7.596 K | 6.646
7.801 K | 6.846
8.006 K | 7.013
8.204 K | 6.953
8.407 K | 6.62
8.613 K | 6.23
8.819 K | 5.945
9.025 K | 5.776
9.228 K | 5.667
9.431 K | 5.598
9.437 K | 5.599
9.634 K | 5.571
9.84 K | 5.554
10.04 K | 5.573
10.2 K | 5.561
10.39 K | 5.603
10.6 K | 5.69
10.81 K | 5.744
11.01 K | 5.812
11.21 K | 5.88
11.41 K | 5.952
11.63 K | 6.046
11.84 K | 6.143
12.03 K | 6.237
12.24 K | 6.337
12.44 K | 6.442
12.66 K | 6.573
12.86 K | 6.675
13.06 K | 6.796
13.26 K | 6.922
13.47 K | 7.055
13.68 K | 7.208
13.77 K | 7.145
13.88 K | 7.299
14.1 K | 7.441
14.28 K | 7.621
14.48 K | 7.747
14.69 K | 7.885
14.92 K | 8.025
15.12 K | 8.197
15.23 K | 8.285
15.32 K | 8.377
15.77 K | 8.706
16.3 K | 9.115
16.83 K | 9.61
17.36 K | 10.08
17.88 K | 10.46
18.09 K | 10.52
18.42 K | 10.87
18.95 K | 11.22
19.48 K | 11.63
20.09 K | 11.62
20.59 K | 11.44
21.1 K | 10.32
21.61 K | 10.49
22.17 K | 11.13
22.39 K | 11.25
26.7 K | 13.57
31.01 K | 15.8
35.3 K | 17.93
39.6 K | 19.66
43.89 K | 21.19
48.19 K | 22.54
52.48 K | 23.47
56.77 K | 24.17
61.06 K | 24.73
65.35 K | 25.19
69.65 K | 25.58
73.95 K | 25.83
78.25 K | 25.98
82.54 K | 26.16
86.85 K | 26.23
91.14 K | 26.36
95.45 K | 26.37
99.73 K | 26.49
104 K | 26.61
108.3 K | 26.65
112.6 K | 26.74
116.9 K | 26.72
121.2 K | 26.78
125.5 K | 26.72
129.8 K | 26.67
134 K | 26.77
138.3 K | 26.81
142.6 K | 26.97
146.8 K | 26.95
151.1 K | 27.04
155.4 K | 27.01
159.7 K | 26.93
164 K | 26.99
168.3 K | 27.12
172.6 K | 27.08
176.9 K | 27.2
181.2 K | 27.26
185.5 K | 27.14
189.8 K | 27.14
194.1 K | 27.14
198.3 K | 27.21
202.6 K | 27.44
206.9 K | 27.36
211.2 K | 27.35
215.5 K | 27.48
219.8 K | 27.48
224.1 K | 27.64
228.4 K | 27.65
232.7 K | 27.61
237 K | 27.52
241.3 K | 27.5
245.6 K | 27.95
249.8 K | 27.71
254.1 K | 27.92
258.4 K | 27.8
262.7 K | 27.77
267 K | 27.72
271.3 K | 28.15
275.6 K | 27.76
279.9 K | 28.06
284.2 K | 28.25
288.5 K | 28.11
292.8 K | 28.27
297.1 K | 28.29
301.5 K | 28.22
